Test results taken from US6562627B1, “High throughput method for measurement of physicochemical values” (BDC Pharma LLC, priority 1998, dated 2003).
Structures can show the parent of a compound that is named as a salt. Where two headings read alike, the source gives them in different places.

Assays:
[1] = cited from earlier work
[2] = cited from earlier work; remark: listed apart in the source
[3] = Text: (§1) k′app=k′HA([H^+]+^surfaceKa)/([H^+]+^bulkKa) Eq. 7
(§2) where k′app is the capacity factor of the test compound measured at different mobile phase pH conditions, and k′HA is the capacity factor of the non-ionized species. Nonlinear fitting of the three experimentally measured parameters [H+], k′app, and k′HA to eq. 7 can be used to obtain numerical estimates for both ^surface Ka and ^bulkKa of the compound.
(§3) k′app=k′A^−([H^+]/^surfaceKa+1)/([H^+]/^bulkKa+1) Eq. 8
(§4) The reason for developing eq. 7 is that eq. […] Both parameters (k′HA and k′A^−) can be treated as unknowns in the equations (like ^bulkKa and ^surfaceKa), and the experimental data can be used to calculate (by non-linear curve fitting) three parameters (k′HA (or k′A^−) and ^bulkKa and ^surfaceKa) instead of two (^bulkKa and ^surfaceKa). This reduces the number of experimental data to be collected, and still allows the determination of the desired parameters (^bulkKa and ^surfaceKa).
(§5) The conventional thinking regarding equations 7 and 8 is that k′HA and k′A^− (the capacity factors of the […] species) are constants that have to be determined experimentally in order to calculate ^bulkpKa and ^surfacepKa. […] This is problematic because it may require use of pH's greater than 8-9, which in the case of some test surfaces causes deterioration. […] If sufficient data are collected (no matter what the pH range is), non-linear curve fitting techniques can be used to fit three parameters (^bulkpKa, ^surfacepKa and k′HA (or k′A^−, depending on whether you use Eq. 7 or Eq. 8)) instead of two (^bulkpKa and ^surfacepKa).
(§6) The test compounds were injected as two distinct mixtures (acidic and basic compounds) to avoid acid/base interactions during the chromatographic runs. […] The retention time (tr) was determined for each compound and the corresponding capacity factor k′app was calculated. Between each run, column degradation was evaluated by running the standard compounds at pH=7.4.
(§7) The retention time of each compound was determined using the Esquire Data Analysis software. The capacity factors k′app were calculated using the equation: k′app=(tr−t0)/t0 where the tr is the retention time, and t0 is the dead time. The final ^surfaceKa and ^bulkKa were calculated by nonlinear least square curve fitting of the following equations:
(§8) k′app=k′HA([H^+]+^surfaceKa)/([H^+]+^bulkKa) (Eq. 7 as shown above).
(§9) k′app=k′A^−([H^+]/^surfaceKa+1)/([H^+]/+^bulkKa+1) (Eq. 8 as shown above).
(§10) [H^+] was calculated from the mobile phase pH values used for the experiment. The fitting parameters were k′A^−, ^surfaceKa, and ^bulkKa for the acidic compounds and kHA, ^surfaceKa, and ^bulkKa for the basic compounds.
(§11) The nonlinear fitting function is from the commercial software S-PLUS (MathSoft). Briefly, the function tries to estimate the parameters to minimize the sum of the squared differences between the response and the prediction. We collected data at 15 different pH values. […] Like all silica based chromatography material, Immobilized Artificial Membranes (IAM's) are unstable in the presence of chemically basic mobile phase, and column lifetimes decrease under these conditions. Thus it is not possible to continuously perfuse IAM columns with basic mobile phases for extended periods of time. […] In summary, 12 points were used to curve fit the data.
(§12) For each compound, the retention time (tr) was determined and the corresponding capacity factor (k′app) was calculated under various mobile phase pH conditions.

[4] = remark: listed apart in the source
Text: as §1, §2, §3, §4, §5
The data was collected on 4.6×30 mm^esterIAM.PC^C10/C3 columns. Four ^esterIAM.PC^C10/C3 columns were used to collect all the experimental data.
as §6, §7, §8, §9, §10, §11, §12

[5] = literature, cited from earlier work; for bulkpka2 (Ref.): second ionizable group
[6] = Capacity factor (k′app) by LC/MS on an immobilized artificial membrane column at varied mobile phase pH; assay type: physicochemical
[7] = 0.01 M PBS mobile phase, 12 pH points 4.05 to 8.06, monovalent equations
[8] = esterIAM.PC C10/C3 column, 0.01 M PBS mobile phase, 12 pH points 4.05 to 8.06, monovalent equations

SMILES: CCCCCCCCCCCCC/C=C/[C@@H](O)[C@H](CO)N(C)C [DMS, N,N-Dimethyl-D-sphingosine]
- fraction protonated ([1]; at physiological pH): 90%
- membrane bound pKa value [1]: 8.8

SMILES: CCCCNc1ccc(C(=O)OCCN(C)C)cc1 [TTC, tetracaine hydrochloride]
- location in the membrane ([2]; pH 5.5, positively charged form): resides near the phospholipid head group region
- location in the membrane ([2]; pH 9.0, uncharged form): penetrates more deeply into the hydrocarbon region of the membrane

SMILES: CC[C@H]1[C@@H]2C[C@H]3[C@@H]4N(C)c5ccccc5[C@]45C[C@@H]([C@H]2[C@H]5O)N3[C@@H]1O [ajmaline]
- bulkpKa (Exp.) [3, 7]: 7.43
- surfacepKa (Exp.) [4, 8]: 6.75
- bulkpKa1 (Ref.) ([5]; 20° C., DMFA/H2O-80%): 8.1

SMILES: COc1cc2c(cc1OC)[C@@]13CCN4CC5=CCO[C@H]6CC(=O)N2[C@H]1[C@H]6[C@H]5C[C@H]43 [brucine]
- bulkpKa (Exp.) [3, 7]: 7.9
- surfacepKa (Exp.) [4, 8]: 6.55
- bulkpKa1 (Ref.) ([5]; conditions not given): 6.04
- bulkpka2 (Ref.) [5]: 11.70

SMILES: CN(C)CCOC(C)(c1ccccc1)c1ccccn1 (centres unmarked) [doxylamine]
- bulkpKa (Exp.) [3, 7]: 7.93
- surfacepKa (Exp.) [4, 8]: 6.72
- bulkpKa1 (Ref.) ([5]; conditions not given): 7.64
- bulkpka2 (Ref.) [5]: 9.20

SMILES: CCC[C@@H]1C[C@@H](C(=O)N[C@@H]([C@H]2O[C@H](SC)[C@H](O)[C@@H](O)[C@H]2O)[C@@H](C)O)N(C)C1 [lincomycin]
- bulkpKa (Exp.) [3]: 7.54
- surfacepKa (Exp.) [4]: 6.28
- bulkpKa1 (Ref.) ([5]; conditions not given): 7.5

SMILES: COc1ccc(OC)c(C(O)CNC(=O)CN)c1 (centres unmarked) [midodrine]
- bulkpKa (Exp.) [3]: 6.65
- surfacepKa (Exp.) [4]: 6.18
- bulkpKa1 (Ref.) ([5]; 0.3% aq. soln): 7.80

SMILES: Cc1cc(-c2ccccc2)nnc1NCCN1CCOCC1 [minaprine]
- bulkpKa (Exp.) [3]: 6.75
- surfacepKa (Exp.) [4]: 5.75
- bulkpKa1 (Ref.) ([5]; conditions not given): 7.05
- bulkpka2 (Ref.) [5]: 4

SMILES: CCn1cc(C(=O)O)c(=O)c2ccc(C)nc21 [nalldixic acid]
- bulkpKa (Exp.) [3, 7]: 6.03
- surfacepKa (Exp.) [4, 8]: 7.54
- bulkpKa1 (Ref.) ([5]; conditions not given): 6.02

SMILES: C=C1CC[C@@]2(O)[C@H]3Cc4ccc(O)c5c4[C@@]2(CCN3CC2CC2)[C@H]1O5 [nalmefene]
- bulkpKa (Exp.) [3, 7]: 7.81
- surfacepKa (Exp.) [4, 8]: 6.88
- bulkpKa1 (Ref.) ([5]; conditions not given): 7.63

SMILES: C=CCN1CC[C@]23c4c5ccc(O)c4O[C@H]2[C@@H](O)C=C[C@H]3[C@H]1C5 [nalorphine]
- bulkpKa (Exp.) [3, 7]: 7.63
- surfacepKa (Exp.) [4, 8]: 6.04
- bulkpKa1 (Ref.) ([5]; conditions not given): 7.8

SMILES: C=CCN1CC[C@]23c4c5ccc(O)c4O[C@H]2C(=O)CC[C@@]3(O)[C@H]1C5 [naloxone]
- bulkpKa (Exp.) [3, 7]: 7.84
- surfacepKa (Exp.) [4, 8]: 6.24

SMILES: CC1COc2c(N3CCN(C)CC3)c(F)cc3c(=O)c(C(=O)O)cn1c23 (centres unmarked) [ofloxacin]
- bulkpKa (Exp.) [3, 7]: 6.84
- surfacepKa (Exp.) [4, 8]: 7.32
- bulkpKa1 (Ref.) ([5]; conditions not given): 5.74
- bulkpka2 (Ref.) [5]: 7.9

SMILES: COc1cc(NS(=O)(=O)c2ccc(N)cc2)nc(OC)n1 [sulfadimethoxine]
- bulkpKa (Exp.) [3, 7]: 6.02
- surfacepKa (Exp.) [4, 8]: 7.64
- Capacity Factor (k′app) on IAM.PC Surface ([6]; mobile phase pH 4.05): 152.07
- Capacity Factor (k′app) on IAM.PC Surface ([6]; mobile phase pH 4.53 (not used for curve fit)): 131.83
- Capacity Factor (k′app) on IAM.PC Surface ([6]; mobile phase pH 5.01): 131.23
- Capacity Factor (k′app) on IAM.PC Surface ([6]; mobile phase pH 5.51): 116.77
- Capacity Factor (k′app) on IAM.PC Surface ([6]; mobile phase pH 6.10): 67.79
- Capacity Factor (k′app) on IAM.PC Surface ([6]; mobile phase pH 6.38): 46.54
- Capacity Factor (k′app) on IAM.PC Surface ([6]; mobile phase pH 6.71): 28.10
- Capacity Factor (k′app) on IAM.PC Surface ([6]; mobile phase pH 7.00): 19.48
- Capacity Factor (k′app) on IAM.PC Surface ([6]; mobile phase pH 7.17): 13.49
- Capacity Factor (k′app) on IAM.PC Surface ([6]; mobile phase pH 7.45): 8.24
- Capacity Factor (k′app) on IAM.PC Surface ([6]; mobile phase pH 7.69): 6.40
- Capacity Factor (k′app) on IAM.PC Surface ([6]; mobile phase pH 7.91): 4.85
- Capacity Factor (k′app) on IAM.PC Surface ([6]; mobile phase pH 8.06): 3.52
- Capacity Factor (k′app) on IAM.PC Surface ([6]; mobile phase pH 8.81 (column degradation, not used for curve fit)): 2.84
- Capacity Factor (k′app) on IAM.PC Surface ([6]; mobile phase pH 10.42 (column degradation, not used for curve fit)): 0.71

SMILES: COc1cc2nc(N3CCN(C(=O)C4CCCO4)CC3)nc(N)c2cc1OC (centres unmarked) [terazosin]
- bulkpKa (Exp.) [3]: 6.65
- surfacepKa (Exp.) [4]: 6.17
- bulkpKa1 (Ref.) ([5]; 0.1 N NaOH): 7.1

SMILES: CC(=O)CC(c1ccccc1)c1c(O)c2ccccc2oc1=O (centres unmarked) [warfarin]
- bulkpKa (Exp.) [3, 7]: 5.43
- surfacepKa (Exp.) [4, 8]: 7
